Measured values published in patent US10582715B2, “Powder flavour composition” (Givaudan S.A., priority 2012, dated 2020).

Key:
[1] = Tasting of snack product (fried potato base, 35% fat, cheese seasoning) with added compound
Description: A snack product consisting of a fried potato base, containing 35% fat and flavored with cheese seasoning containing salt, MSG, dairy, organic acids, sugars, and a flavour formulation.

[2] = Tasting of air expanded base (3% fat, cheese seasoning) with added compound
Description: An air expanded base (Rice, wheat, Tapioca, potato, salt, sugar, modified starch), containing 3% fat and flavored with cheese seasoning containing salt, MSG, dairy, organic acids, sugars and flavor.

[3] = Test on orange flavoured Tang powdered soft drink, evaluated by expert tasters
Description: In an orange flavoured Tang powdered soft drink (market product) sweetened with sucrose plus high intensity sweetener and containing citric acid, C18:2-gaba and C18:2-pro were tested.
All samples were evaluated by expert tasters. Tasters were asked to describe the samples focusing on authentic taste, mouthfeel & body, enhancement, richness, juiciness, long lastingness, salivation, sweetness, masking off notes of high intensity sweetener
Base is Orange Flavoured Tang
Base: sweet, orange, licorice, and lingering high intensity sweetener offnotes, bitter, thin

[4] = Mango flavoured still beverage containing different levels of juice, evaluated by expert tasters
Description: In a Mango flavoured still beverage, sweetened with 8% sucrose and containing 0.1% citric acid and 1%, 4% and 6% clear mango juice flavoured with a proprietary Mango flavour @ 0.05% , C18:2-gaba and C18:2-Pro were added, as such (separate) and in combination.
All samples were evaluated by expert tasters. Tasters were asked to describe the samples focusing on authentic taste, juicy mouthfeel, enhancement, richness, juiciness, long lastingness, salivation, sweetness.
In a Mango flavoured still beverage, sweetened with 8% sucrose & containing 0.1% citric acid and 1% clear mango juice flavoured with proprietary Mango flavour @ 0.05%, C18:2-gaba and C18:2-Pro were added, as such (separate) and in combination.
Base is water, 8% sucrose, 0.1% citric acid, 1% clear mango juice (very low juice %), flavoured with Mango flavor, dosed at 0.05%
Base: sweet, fruity, mango, thin
In a Mango flavoured still beverage, sweetened with 8% sucrose & containing 0.1% citric acid and 4% clear mango juice flavoured with Mango flavour @ 0.05% , C18:2-gaba and C18:2-Pro were added, as such (separate) and in combination.
Base is water, 8% sucrose, 0.1% citric acid, 4% clear mango juice (30% reduced juice), flavoured with Mango flavor, dosed at 0.05%
Base: sweet, fruity, mango, some low mouthfeel
In a Mango-flavoured still beverage, sweetened with 8% sucrose & containing 0.1% citric acid and 6% clear mango juice flavoured with Mango flavour @ 0.05%, C18:2-gaba and C18:2-Pro were added, as such (separate) and in combination.
Base is water, 8% sucrose, 0.1% citric acid, 6% clear mango juice (full juice), flavoured with Mango flavor, dosed at 0.05%.
Base: Sweet, fruity mango, full mouthfeel

[5] = Test in 3 in 1 Coffee beverage, evaluated by expert tasters; details: sucrose 13.2%, creamer 2.1% fat, compound at 1 ppm, base: coffee, sweet, mild dairy
Description: In a 3 in 1 Coffee beverage from Nestle (market product) sweetened with sucrose 13.2% and containing creamer (2.1% fat) C18:2-gaba was added.
Samples were evaluated by expert tasters. Tasters were asked to describe the samples focusing on authentic taste, mouthfeel, fullness, salivation, sweetness, juiciness, richness, long lastingness and fattiness.
Base is 3-in-1 Coffee Beverage (Market Product) Sweetened with Sucrose and Containing Creamer with Fat
Base: coffee, sweet, mild dairy

**Q.** Which results are given for `CCCCCCCC/C=C\CCCCCCCC(=O)N[C@@H](CCSC)C(=O)O` [C18:1 met]?
**A.** tasting results ([1]; compound at 0.25 ppm): Salty, aged cheese, succulent; tasting results ([1]; compound at 0.5 ppm): Increased cheese, creamy, salty and succulent

**Q.** With `CCCCCCCC/C=C\CCCCCCCC(=O)NC1(C(=O)O)CC1` [C18:1-ACCA, N-oleoyl 1-amino-cyclopropyl carboxylic acid] as the compound, how does the tasting results ([1]; compound at 0.5 ppm) read?
**A.** Increased salty

**Q.** What about the tasting results ([1]; compound at 1 ppm) of the same compound?
**A.** Increased Umami, salty

**Q.** What about the tasting results ([2]; compound at 0.5 ppm) of the same compound?
**A.** Increased salty

**Q.** What about the tasting results ([2]; compound at 1 ppm) of the same compound?
**A.** Increased Umami, salty

**Q.** What does the source list for `CCCCC/C=C\C/C=C\CCCCCCCC(=O)N1CCC[C@H]1C(=O)O` [C18:2-Pro]?
**A.** masking off notes of high intensity sweetener ([3]; compound at 1 ppm): the off-notes of the high intensity sweetener were suppressed; taste description by expert tasters ([3]; compound at 1 ppm): very fresh, enhances sweet juicy orange notes, characteristic of authentic fresh orange fruit; taste description by expert tasters ([4]; 1% clear mango juice, compound at 0.5 ppm): more sweet, sugar-like, very juicy and long lasting sweet, salivating; taste description by expert tasters ([4]; 4% clear mango juice, compound at 0.5 ppm): more sweet, sugar-like, very juicy and long lasting sweet, salivating; taste description by expert tasters ([4]; 6% clear mango juice (full juice), compound at 0.5 ppm): more sweet, sugar-like, very juicy and long lasting sweet, salivating, syrupy

**Q.** For `CCCCC/C=C\C/C=C\CCCCCCCC(=O)NCCCC(=O)O` [C18:2-gaba], which tasting results ([1]; compound at 0.5 ppm) is on record?
**A.** increased dairy, cheesy

**Q.** And the tasting results ([1]; compound at 1 ppm)?
**A.** Fatty full, cheesy, cheese crust, long lasting

**Q.** What about the tasting results ([2]; compound at 0.5 ppm) of the same compound?
**A.** Increased dairy, cheese

**Q.** What about the tasting results ([2]; compound at 1 ppm) of the same compound?
**A.** Fatty full, cheesy, cheese crust, long lasting, cover base

**Q.** And the “taste description by expert tasters” value [5]?
**A.** very nice mouthfeel effect, creamy as if coffee creamer is added, more sweet

**Q.** What about the “masking off notes of high intensity sweetener” value ([3]; compound at 0.5 ppm) of the same compound?
**A.** the off-notes of the high intensity sweetener were suppressed

**Q.** And the “taste description by expert tasters” value ([3]; compound at 0.5 ppm)?
**A.** enhances sweet juicy orange notes, enhanced mouthfeel

**Q.** What about the “taste description by expert tasters” value ([4]; 1% clear mango juice, compound at 1 ppm) of the same compound?
**A.** fatty skin-like, very juicy, authentic mango, much more mouthfeel, long lasting mango taste, mouthfeel is close to the full juice product

**Q.** And the “taste description by expert tasters” value ([4]; 4% clear mango juice, compound at 1 ppm)?
**A.** fatty skin-like, very juicy, authentic mango, long lasting mango taste, more mouthfeel than the full juice product

**Q.** What about the “taste description by expert tasters” value ([4]; 6% clear mango juice (full juice), compound at 1 ppm) of the same compound?
**A.** fatty skin-like, very thick juicy, authentic mango, long lasting mango taste, rich
